The target of the test is T1, Histidine--tRNA ligase (Leishmania infantum, UniProt A4I591).
T1 sequence (A4I591 whole entry): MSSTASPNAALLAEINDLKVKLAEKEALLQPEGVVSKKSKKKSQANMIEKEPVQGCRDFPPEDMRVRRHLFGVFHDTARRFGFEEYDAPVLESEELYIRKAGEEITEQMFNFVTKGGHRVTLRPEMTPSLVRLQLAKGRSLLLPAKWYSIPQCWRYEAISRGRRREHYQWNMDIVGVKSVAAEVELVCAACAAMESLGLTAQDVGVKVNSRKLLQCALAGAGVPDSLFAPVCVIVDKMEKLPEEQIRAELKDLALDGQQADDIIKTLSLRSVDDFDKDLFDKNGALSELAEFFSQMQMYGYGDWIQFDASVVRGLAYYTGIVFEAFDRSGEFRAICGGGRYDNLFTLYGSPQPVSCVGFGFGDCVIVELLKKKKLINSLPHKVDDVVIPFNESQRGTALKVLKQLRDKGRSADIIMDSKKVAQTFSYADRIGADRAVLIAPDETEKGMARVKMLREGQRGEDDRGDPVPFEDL
The test is described as follows: Leishmania infantum Histidine tRNA synthetase (LdHisRS). In kind it is functional.

SMILES strings stand for the structures. “And” between values parts separate entries of the source, which are not always exact repeats. Identical values can stand only once.

One may read the IC50 as the point on the concentration scale where inhibition reaches its midpoint. High values mean lower potency, low ones higher potency. In the case of `Cc1c(CN2CCCCC2)c(O)n(CCO)c(=O)c1C#N`, the IC50 was 34.4 µM and 35.9 µM. For `O=C(c1ccc2[nH]ccc2c1)N1CCn2cnc(COCC3CC3)c2C1`, the IC50 was 38.4 µM and 25.7 µM.

Consider `Cc1c(CN2CCOCC2)c(O)n(CCc2ccccc2)c(=O)c1C#N`, for which the IC50 was 23.3 µM and 19.8 µM. In the case of `CNc1[nH]nc(N)c1NC(=O)c1ccccc1`, the IC50 was 12.7 µM and 14.3 µM. The same measure for `COCCN1CCCC(C)(c2cc(O)[nH]n2)C1` (centres undefined): greater than 100 µM.

On to `COCCN1CCC(C)(c2cc(O)[nH]n2)CC1`, for which the IC50 was 71.4 µM and 66.4 µM.

On to `CS(=O)(=O)N1CCCC(Cc2ccnc3ccncc23)CC1` (centres undefined), for which the concentration for half-maximal inhibition (IC50) is 21.6 µM and 22.8 µM. On to `CN(C)C(=O)CN1CCCC1c1cccc(Cc2ccccc2F)n1` (centres undefined), for which the IC50 is 61.1 µM and 51.2 µM. In the case of `Cc1nccn1-c1cccc(C2CCCN(C3CCCC3)C2)n1` (centres undefined), the IC50 was 32.3 µM and 35.9 µM. The molecule `c1cc2nccc(CC3CCCN(Cc4ncc[nH]4)CC3)c2cn1` (centres undefined) gave an IC50 greater than 100 µM. The same measure for `Cc1noc(C(C)Nc2ccc(N3CCOCC3)cc2C)n1` (centres undefined): greater than 100 µM; for `CCC(=O)Nc1cc(Br)cn(C)c1=O`: 7.66 µM and 7.91 µM. The same measure for `O=C(Nc1cccn(Cc2ccccc2)c1=O)c1ccncc1F`: 35.7 µM and 31.2 µM; for `NC(=O)CCS(=O)(=O)Cc1ccc(OCC(F)(F)F)cc1`: > 100 µM and 68.4 µM; for `O=C(NC1CCCN(c2ccc(OC(F)F)cc2)C1)c1ccon1` (centres undefined): greater than 100 µM. The same measure for `Cc1cc(C(=O)Nc2cccn(Cc3ccc(F)cc3)c2=O)on1`: 12.9 µM and 11.3 µM; for `COc1ccc(NC(=O)C2CCCO2)cc1OCc1cccnc1` (centres undefined): > 100 µM and 72.6 µM. For `NC(=O)C1=NC2=NS(=O)(=O)c3ccccc3N2N1Cc1ccc(Br)cc1`, the IC50 is 41 µM and 69.9 µM. On to `Cc1noc(C)c1CNc1ccc2nc(C3CC3)sc2c1`, for which the IC50 is greater than 100 µM.

`Cc1cc(CNc2ccc3nc(C)sc3c2)no1` showed an IC50 greater than 100 µM. Take `COc1ccccc1C1(CNCc2ccc(C#N)cc2)CCOCC1`: the IC50 is 50.4 µM and 50.9 µM. The same measure for `CC(C)c1ccc(C(=O)O)cc1S(=O)(=O)Nc1ccc(=O)n(C)c1`: 12.5 µM and 14.9 µM; for `Cc1ccsc1C(=O)Nc1cc(Br)c(=O)n(C)c1`: 30.3 µM and 25.3 µM. The same measure for `Cn1cnnc1C1CCCN(C(=O)c2cc(C3CC3)on2)C1` (centres undefined): greater than 100 µM. The same measure for `CCCn1cc(NC(=O)c2cccc3cccnc23)ccc1=O`: 40.1 µM and 37.9 µM; for `O=C(Nc1ccc(=O)n(Cc2ccccc2Cl)c1)C1CC1`: 6.94 µM and 5.93 µM.

In the case of `O=C1NCC(C(=O)Nc2ccc(=O)n(Cc3ccccc3Cl)c2)N1` (centres undefined), the IC50 was 12.7 µM and 15.3 µM. As for `Cc1cc(O)ncc1NS(=O)(=O)c1cccc(F)c1F`, the IC50 is 45.7 µM and 49.5 µM.

As for `O=C1CCC(C(=O)Nc2ccc(=O)n(Cc3ccc(Cl)c(Cl)c3)c2)N1` (centres undefined), the IC50 was 10.1 µM and 9.92 µM. The same measure for `Cn1cc(NC(=O)Nc2cccc3cccnc23)ccc1=O`: 2.58 µM and 4.22 µM; for `COc1ccc(C(NCc2cccc(O)c2)C2CC2)cc1` (centres undefined): 26.9 µM and 20.1 µM. The same measure for `Cc1cc(C)cc(OCCC(=O)NC2CC(=O)N(C)C2)c1` (centres undefined): greater than 100 µM. The same measure for `CC(=O)N1CCN(C(=O)CNc2ccc3ncsc3c2)CC1`: 6.78 µM and 9.49 µM; for `CN(C(=O)CN1CCc2nn(C)c(=O)cc2C1)c1nccs1`: 95.3 µM and > 100 µM; for `CS(=O)(=O)CCOCCNc1cncc(Br)c1`: greater than 100 µM.

For the molecule `NCc1ccnc(Oc2ccccc2)c1`, the IC50 is 39.2 µM and 30.9 µM. The same measure for `Cc1noc(C)c1CNc1c(N2CCCC2)cccc1N1CCCC1`: greater than 100 µM; for `Cn1cccc(NC(=O)N2CCC(CSc3ccccc3)C2)c1=O` (centres undefined): 15.1 µM and 14.9 µM; for `Cn1cc(NC(=O)Nc2ccccn2)cc(Cl)c1=O`: 13.6 µM and 14.1 µM. The same measure for `CCCn1nc2c(cc1=O)CN(Cc1cc(C)on1)CC2`: 80.7 µM and 80.3 µM. The same measure for `CCCn1nc2c(cc1=O)CN(Cc1nc(CCOC)no1)CC2`: 57.7 µM and 67.2 µM. Molecule `CN(C)CCn1c(=O)oc2ccc(NC(=O)C3CCCO3)cc21` (centres undefined) had an IC50 greater than 100 µM. For the molecule `COc1cccc(CN(C)C(=O)CN2CC(n3nc(C)cc3C)C2)c1`, the IC50 is 37.2 µM and 43.7 µM.

In the case of `O=C(NCC1CC1)c1cc2c(s1)CCN2c1ncccn1`, the IC50 is 63 µM and 54 µM.

In the case of `CCn1nnc2c1C(COC)CN(Cc1ccco1)C2` (centres undefined), the IC50 is greater than 100 µM.

In the case of `Cn1nccc1-c1ncc(-c2cc(C(=O)O)n(CC3CC3)c2)cn1`, the IC50 is greater than 100 µM. The same measure for `CN(C)CCN1CCO[C@@H]2CCN(C(=O)c3cccn3C)CC[C@H]21`: greater than 100 µM; for `CC(=O)N1CCO[C@@H]2CN(S(=O)(=O)c3ccc(C)cc3)CC[C@@H]2C1`: greater than 100 µM. The same measure for `C[C@H](NS(C)(=O)=O)C(=O)NCc1cc(-c2ccco2)n[nH]1`: greater than 100 µM; for `CC(C)[C@H](NS(C)(=O)=O)C(=O)NCc1cc(-c2ccco2)n[nH]1`: 87.9 µM and 82 µM. The same measure for `CN1C(=O)[C@H]2CC[C@@H]1CN(C(=O)Nc1cccc3ccccc13)C2`: 55.3 µM and 43.3 µM; for `O=C(CCc1n[nH]c2c1CCCC2)N1C[C@@H]2CC[C@H](C1)N(CC1CC1)C2`: 44.9 µM and 35.8 µM. Consider `FC(F)(F)c1ccc(-c2cc(NC3CCNCC3)nc3[nH]ccc23)nc1`, for which the IC50 was 29.3 µM and 30.2 µM. The same measure for `CC(C)c1nnc(N2C[C@@H]3CC[C@H](C2)N(Cc2ccccc2)C3)s1`: 35.5 µM and 34.5 µM; for `CC(=O)Nc1ccc2nc(-c3nccn3C[C@@H]3CCCO3)ccc2c1`: > 100 µM and 85.4 µM. In turn, `Cn1ccnc1-c1cn(CCc2nnc(N)s2)nn1` showed an IC50 greater than 100 µM. The same measure for `COc1cccc(N2CCN(Cc3cccc(CCN)c3)CC2=O)c1`: 23.3 µM and 28.2 µM; for `CN1CCN(Cc2nnc(C3CCN(C(CO)CO)CC3)n2C)CC1`: 16 µM and 15.8 µM; for `O=C1CN(C(=O)c2cc(-c3ccco3)nc3c(Cl)cccc23)CCN1`: 18.6 µM and 19.5 µM.

Take `COc1ccc(CCN)cc1-c1ccc(C(N)=O)cc1`: the IC50 was 48.8 µM and 28 µM. The same measure for `Clc1cc(NCc2ccncc2)nc2[nH]ccc12`: 18.7 µM and 17.4 µM; for `CC(C)c1cc(N2CCC(C(C)N3CCCC3)CC2)n2nccc2n1` (centres undefined): 34.3 µM and 31.4 µM. The same measure for `CN(C)[C@@H]1C[C@@H](CO)N(C(=O)Nc2ccc(SC(F)(F)F)cc2)C1`: greater than 100 µM; for `Cn1ccnc1-c1cn(CCCc2csc(N)n2)nn1`: greater than 100 µM; for `O=C(c1cc(-c2ccco2)nc2c(Cl)cccc12)N1C[C@H]2CNC[C@H]2C1`: 48.1 µM and 51.8 µM.

Take `CCc1cc(N2CCC(F)(F)CC2)n2nc(C)c(C)c2n1`: the IC50 is greater than 100 µM.

`COc1cccn(CC(=O)N(C)CCCOc2c(C)cccc2C)c1=O` had an IC50 greater than 100 µM.

In the case of `Cc1cccc2c1nc(COCC(=O)O)n2-c1cnc(N)cn1`, the IC50 was greater than 100 µM. The same measure for `c1cncc(NCCNC2CCSC2)c1` (centres undefined): 31.9 µM and 23 µM; for `NCCc1cccc(CN2CCN(c3ccccc3)C(=O)C2)c1`: 26.8 µM and 20.5 µM. The same measure for `CN1CCN(c2cccc(NC(=O)NCc3csc(N(C)C)n3)c2)C1=O`: 38.9 µM and 48.5 µM.

In the case of `CC(Nc1nc(-c2ccncc2)nc2c1CCNC2)c1ccccc1` (centres undefined), the IC50 is 43.4 µM and 46.8 µM. The same measure for `COc1ccc(C(=O)N2CCN(c3cc(CCN)nc(C)n3)CC2)cc1`: 49.3 µM and 51.2 µM; for `O=C(CCN1CCCC1)N1CC[C@@H](c2ccc3ccccc3c2)[C@H](O)C1`: 63.5 µM and 54.7 µM; for `c1cncc(NCCNC2CSCCSC2)c1`: 28.7 µM and 19.6 µM. The same measure for `CN(Cc1ccccc1CN1CCCC1)c1ncnc2[nH]ccc12`: 44.8 µM and 48.7 µM. The same measure for `Cc1c(C(=O)N2CCC(O)(CN(C)C)C2)c2cc(O)ccc2n1C` (centres undefined): greater than 100 µM.

With `CCOc1ccc2nc(CN3CCC(CN)C3)ccc2c1` (centres undefined), the IC50 was 33.2 µM and 46.9 µM. The same measure for `O=C(c1cc(=O)n(-c2ccccc2)[nH]1)N1CCCC(c2ccn[nH]2)C1` (centres undefined): 49.3 µM and 44.5 µM; for `CCC1=NOC(CNCc2cnc(-c3ccccc3C)s2)C1` (centres undefined): greater than 100 µM. The same measure for `COc1cccc2c1OCCCN(c1nc(N)nc3c1CCNC3)C2`: 28.2 µM and 32.1 µM. For `CCc1ocnc1C(=O)N1CCN(c2ccc3ccccc3c2)CC1`, the IC50 is 57.4 µM and 54 µM. As for `CC(C)N(C)S(=O)(=O)c1ccc2c(c1)CCN(C(=O)c1ccccn1)C2`, the IC50 was 37 µM and 42.8 µM. The same measure for `O=C1CC2(CCN(Cc3ccc4cccc(O)c4n3)CC2)CN1`: 46.2 µM and 45.6 µM; for `COc1cccn(Cc2nnc(-c3cccc(F)c3)o2)c1=O`: 15.9 µM and 12.8 µM.

Consider `CC(c1ccco1)n1cc(-c2cc(CN3CCCC3)cs2)nn1` (centres undefined), for which the IC50 was 55.6 µM and 80.9 µM. The same measure for `Cc1nonc1CN(C)c1nc(-c2cccnc2)nc2c1CCNC2`: 15.1 µM and 18.7 µM; for `COc1cccc(-c2n[nH]c3c2CN(C(=O)c2cccc(=O)[nH]2)CC3)c1`: 12.9 µM. The same measure for `COc1nccnc1-c1cc(NC2CCNCC2)nc2[nH]ccc12`: 34.1 µM and 29.8 µM; for `CC(=O)Cc1c(C)nn(-c2cncc(N)c2)c1C`: 33.4 µM and 30.1 µM; for `CNC(=O)c1cn2cc(-c3ccccc3Cl)n(CC=C(C)C)c(=O)c2n1`: 54.6 µM and 36 µM. Regarding `COc1ccc(Oc2nccc3occc23)cc1CN1CCCC1`, the IC50 was 66.1 µM and 62.2 µM. The same measure for `COc1cccn(CC(=O)N(C)Cc2ccoc2)c1=O`: greater than 100 µM; for `COc1cccn(CC(=O)N(C)CCOc2cc(C)cc(C)c2)c1=O`: 3.92 µM and 3.35 µM. The same measure for `CNCCc1nc2cc(F)ccc2[nH]1`: 47.9 µM and 34.8 µM; for `c1cncc(-c2ccc3c(c2)C2(CC3)CCN(c3nncs3)CC2)c1`: 32.5 µM and 45.4 µM.

In turn, `CCn1nnc2c1C(COCC(=O)N(C)C)CN(Cc1ccco1)C2` (centres undefined) gave a concentration for half-maximal inhibition (IC50) greater than 100 µM. The same measure for `CCS(=O)(=O)Nc1ccc2c(c1)C1(CCOCC1)CN2C`: 13.4 µM and 11 µM; for `CCN1CC2(CCOCC2)c2cc(NS(=O)(=O)CC)ccc21`: 8.64 µM and 21.4 µM.

Values taken from ChEMBL document CHEMBL3988442, “University of Dundee, Small-Polar-MMV Screening Library” (2021).
